Measured values from patent US9163007B2, “5-substituted indazoles as kinase inhibitors” (AbbVie Inc., priority 2007, dated 2015).
Read-outs that look alike come from different tables or passages of the source.

Assays:
rats [1] = test: Spinal nerve (L5/L6) ligation model of neuropathic pain (Chung); type: in vivo, rat; settings: i.p. or p.o., doses ranging from 1-150 mg/kg
From the text: Spinal Nerve (L5/L6) Ligation Model of Neuropathic Pain.
As previously described in detail by Kim and Chung (Kim S. H.; Chung J. M. An experimental model for peripheral neuropathy produced by segmental spinal nerve ligation in the rat. Pain 1992, 50, 355-363), a 1.5 cm incision was made dorsal to the lumbosacral plexus. In anesthetized rats, the paraspinal muscles (left side) were separated from the spinous processes, the L5 and L6 spinal nerves isolated, and tightly ligated with 3-0 silk threads. Following hemostasis, the wound was sutured and coated with antibiotic ointment. The rats were allowed to recover and then placed in a cage with soft bedding for 14 days before behavioral testing for mechanical allodynia.

rats [2] = test: Sciatic nerve ligation model of neuropathic pain (Bennett); type: in vivo, rat; settings: i.p. or p.o., doses ranging from 1-150 mg/kg
From the text: Sciatic Nerve Ligation Model of Neuropathic Pain.
As previously described in detail by Bennett and Xie (Bennett G. J.; Xie Y-K. A peripheral mononeuropathy in rat that produces disorders of pain sensation like those seen in man. Pain 1988, 33, 87-107), in anesthetized rats, a 1.5 cm incision was made 0.5 cm below the pelvis and the biceps femoris and the gluteous superficialis (right side) were separated. The sciatic nerve was exposed, isolated, and four loose ligatures (5-0 chromic catgut) with 1 mm spacing were placed around it. The rats were allowed to recover and then placed in a cage with soft bedding for 14 days before behavioral testing for mechanical allodynia as described above. In addition, animals were also tested for cold allodynia by dipping their hind paw in a cold-water bath (4.5° C.) and determining the paw withdrawal latency.

Balb/c mice = test: Murine model of acute asthma: airway hyperresponsiveness (lung resistance); type: in vivo, mouse; settings: OVA-challenged mice, 3 mg/kg orally once a day
From the text: Murine Asthma Model of Acute Asthma
Female Balb/c mice were purchased from Taconic and housed at Abbott Bioresearch Center. Animals were utilized at 8-12 weeks of age. All protocols were approved by the Institutional Animal Care and Use Committee (IACUC). Dexamethasone (Dex), and ovalbumin (OVA) were purchased from Sigma. Endotoxin was removed from ovalbumin using DetoxiGel (Pierce) according to manufacturer's protocol and the final material contained less than 0.1 EU/mg protein. Alum Imject was purchased from Pierce.
Animals were sensitized to OVA on day 0 and 7 with an i.p. injection of 8 μg OVA in 2 mg alum. On days 14 and 16, animals received intra-nasal challenge of 0.3 μg OVA in 50 μl sterile PBS. […] All endpoints were analyzed on day 17, 24 hours after the second OVA challenge. AHR was assessed using unconscious restrained whole body plethysmography. […] Pressure in the lung and flow within the plethysmograph were measured using transducers, and lung resistance was calculated as pressure/flow using Biosystem Xa software. Baseline resistance as well as resistance following challenge with methacholine (3, 10 or 30 mg/mL) that was delivered with an inline ultrasonic-nebulizer were measured. […] Lavage fluid was analyzed for IL-13, AMCase, Muc5ac and cellular infiltrates. […]

Cdc7/Dbf4 = Cdc7/Dbf4 (Homo sapiens (Human), UniProt O00311); test: Cdc7 Inhibition Assay; type: biochemical;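 also: reaction mixtures incubated 30 min on streptavidin-coated plates, then quantified by scintillation counting, with inhibition curves fitted by non-linear regression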
Method: The reactions were incubated for 30 minutes on streptavidin-coated plates, washed, and quantified using a TopCount scintillation plate reader (Packard). IC50 values are determined via non-linear regression fitting of the data.

[3] = tested on: phospho-MCM2 Ser53 in HCT-116 cells; test: Phospho-MCM2 ELISA; type: cell-based; settings: Homo sapiens, treated 6 hours
Method: HCT-116 cells (20,000/well; 96-well format) were treated for 6 hours with increasing concentrations of compounds (0.01-10 μM in half-log increments). After removing the medium/inhibitor, the cells were frozen for 5 minutes and treated on ice with 20 μL of lysis buffer (Invitrogen #FNN0011) for 30 minutes. 80 μL of cold 2% BSA (in PBS) were then added to each well before transferring 80 μL to MCM2 antibody-coated plates (Bethyl #A300-122A, lot A300-122A-1). The plates were incubated overnight at 4° C., washed, and then incubated with the sandwich antibody (1:100 rabbit anti-human phospho-MCM2 Ser53; Bethyl #A300-756A, lot A300-756A-2) for 2 hours at room temperature. After another series of washes the samples are incubated for 1 hour with detection antibody (XSA-grade goat anti-rabbit-HRP, KPL #074-15-061, lot 50884, diluted to 2 μg/mL in 2% BSA). Plates were washed, developed using luminescence substrate (SuperSignal Pico for ELISA, Pierce #37069, Lot. HB101408), and read on a Molecular Devices M5 luminometer.

HCT-116 cells = test: AlamarBlue Cell Viability Assays; type: cell-based; settings: Homo sapiens, treated 72 hours
Method: AlamarBlue Cell Viability Assays
HCT-116 cells (3,000/well; 96-well format) were treated for 72 hours with increasing concentrations of compounds (0.01-30 μM in half-log increments). The cells were then incubated in fresh media with 10% AlamarBlue reagent (Invitrogen #DAL1100). AlamarBlue reactions were incubated according to the manufacturer's instructions (approximately 4 hours) and then analyzed using an fmax fluorescence microplate reader (Molecular Devices) using excitation/emission wavelengths of 544/595 nm. Data were analyzed using SOFTmax PRO software provided by the manufacturer.

[4] = 11 data point, read-out: Ki (μM) 11 data point

Cdc7/Dbf4, sequence (O00311 whole entry): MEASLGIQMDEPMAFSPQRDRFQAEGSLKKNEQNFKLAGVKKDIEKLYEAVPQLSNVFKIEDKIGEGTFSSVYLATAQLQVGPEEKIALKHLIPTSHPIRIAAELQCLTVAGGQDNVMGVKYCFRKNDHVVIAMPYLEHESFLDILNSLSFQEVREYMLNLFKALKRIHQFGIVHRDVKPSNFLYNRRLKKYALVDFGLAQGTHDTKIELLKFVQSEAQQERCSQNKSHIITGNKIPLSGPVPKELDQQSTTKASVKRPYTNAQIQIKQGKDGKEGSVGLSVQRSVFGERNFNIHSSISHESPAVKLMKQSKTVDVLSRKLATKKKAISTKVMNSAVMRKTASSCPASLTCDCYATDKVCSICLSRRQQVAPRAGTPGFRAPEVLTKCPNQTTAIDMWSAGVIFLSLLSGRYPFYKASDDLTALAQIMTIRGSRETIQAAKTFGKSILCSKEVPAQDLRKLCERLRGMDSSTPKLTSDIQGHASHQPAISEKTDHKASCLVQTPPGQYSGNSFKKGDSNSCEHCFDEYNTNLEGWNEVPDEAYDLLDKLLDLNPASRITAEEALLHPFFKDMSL
Cdc7/Dbf4, sequence (Q9UBU7 whole entry partner): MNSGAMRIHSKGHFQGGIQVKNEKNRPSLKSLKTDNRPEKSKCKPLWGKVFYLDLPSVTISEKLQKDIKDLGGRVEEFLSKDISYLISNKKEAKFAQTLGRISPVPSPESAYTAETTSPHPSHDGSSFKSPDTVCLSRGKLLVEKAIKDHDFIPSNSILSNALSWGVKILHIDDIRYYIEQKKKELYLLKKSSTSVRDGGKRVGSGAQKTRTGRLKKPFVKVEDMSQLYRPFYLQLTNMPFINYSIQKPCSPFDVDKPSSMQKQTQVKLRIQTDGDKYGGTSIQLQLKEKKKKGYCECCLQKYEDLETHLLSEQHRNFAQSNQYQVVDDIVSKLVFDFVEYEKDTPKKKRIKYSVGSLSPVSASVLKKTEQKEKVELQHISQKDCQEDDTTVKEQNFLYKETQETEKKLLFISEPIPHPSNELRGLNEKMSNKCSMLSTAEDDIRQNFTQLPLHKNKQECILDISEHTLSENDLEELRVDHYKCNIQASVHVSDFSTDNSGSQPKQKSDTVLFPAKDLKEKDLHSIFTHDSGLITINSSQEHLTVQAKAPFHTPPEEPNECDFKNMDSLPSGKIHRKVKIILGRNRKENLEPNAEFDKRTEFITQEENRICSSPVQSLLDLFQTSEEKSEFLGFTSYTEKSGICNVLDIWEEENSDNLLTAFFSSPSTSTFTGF

| SMILES | Ki (Cdc7/Dbf4; [4]) [µM] | EC50 [3] [nM] | EC50 (HCT-116 cells) [nM] | Ki (Cdc7/Dbf4; 6 data point, read-out: Ki (μM) 6 data point) [µM] | inhibition of tactile allodynia (rats [1]) | inhibition of tactile allodynia (rats [2]) | methacholine-induced airways resistance (Balb/c mice) [cm H2O/mL/sec] |
| --- | --- | --- | --- | --- | --- | --- | --- |
| O=C(N[C@H](CO)c1ccccc1)c1cc(-c2ccc3[nH]ncc3c2)on1 [Example 160, N-[(1S)-2-hydroxy-1-phenylethyl]-5-(1H-indazol-5-yl)isoxazole-3-carboxamide] |  |  |  |  | greater than 30% | greater than 30% |  |
| C[C@@H]1C[C@H]2[C@@H]3CCC4=CC(=O)C=C[C@]4(C)[C@@]3(F)[C@@H](O)C[C@]2(C)[C@@]1(O)C(=O)CO [dexamethasone, Dexamethasone, reference compound] |  |  |  |  |  |  | 4.76 |
| NC(=O)N(c1ccccc1Cl)c1n[nH]c2ccc(-c3nnn(Cc4ccccc4)c3C3CC3)cc12 [Example 263, N-[5-(1-benzyl-5-cyclopropyl-1H-1,2,3-triazol-4-yl)-1H-indazol-3-yl]-N-(2-chlorophenyl)urea] | 0.022 | > 10000 | 1040 |  |  |  |  |
| NC(=O)N(Cc1ccccc1)c1n[nH]c2ccc(-c3nnn(Cc4ccccc4)c3C3CC3)cc12 [Example 262, N-benzyl-N-[5-(1-benzyl-5-cyclopropyl-1H-1,2,3-triazol-4-yl)-1H-indazol-3-yl]urea] | 0.041 | > 10000 | 3420 |  |  |  |  |
| Clc1ccc(CNc2n[nH]c3ccc(-c4nnn(Cc5ccccc5)c4C4CC4)cc23)cc1 [Example 227, 5-(1-benzyl-5-cyclopropyl-1H-1,2,3-triazol-4-yl)-N-(4-chlorobenzyl)-1H-indazol-3-amine] | 0.015 | > 10000 | 1400 |  |  |  |  |
| Nc1n[nH]c2ccc(-c3nnn(Cc4ccccc4)c3CC3CCCCC3)cc12 [Example 403, 5-[1-benzyl-5-(cyclohexylmethyl)-1H-1,2,3-triazol-4-yl]-1H-indazol-3-amine] | 0.0082 | > 10000 | 8 |  |  |  |  |

Continued by falling Ki (Cdc7/Dbf4; [4]), values first:

| Ki (Cdc7/Dbf4; [4]) [µM] | EC50 [3] [nM] | EC50 (HCT-116 cells) [nM] | Ki (Cdc7/Dbf4; 6 data point, read-out: Ki (μM) 6 data point) [µM] | SMILES | inhibition of tactile allodynia (rats [1]) | inhibition of tactile allodynia (rats [2]) | methacholine-induced airways resistance (Balb/c mice) [cm H2O/mL/sec] |
| --- | --- | --- | --- | --- | --- | --- | --- |
| 0.0024 | > 10000 | 595 | 0.0009 | O=C(Nc1n[nH]c2ccc(-c3nnn(Cc4ccccc4)c3C3CC3)cc12)c1cccc(F)c1 [Example 205, N-[5-(1-benzyl-5-cyclopropyl-1H-1,2,3-triazol-4-yl)-1H-indazol-3-yl]-3-fluorobenzamide] |  |  |  |
| 0.00225 | 5740 | 1450 |  | Cc1ccccc1-c1c(-c2ccc3[nH]nc(C)c3c2)nnn1Cc1ccccc1 [Example 162, 5-[1-benzyl-5-(2-methylphenyl)-1H-1,2,3-triazol-4-yl]-3-methyl-1H-indazole] |  |  |  |
| 0.0005 | 671 | 1500 |  | Nc1n[nH]c2ccc(-c3nnn(Cc4ccccc4)c3-c3cccs3)cc12 [Example 406, 5-(1-benzyl-5-thien-2-yl-1H-1,2,3-triazol-4-yl)-1H-indazol-3-amine] |  |  |  |
| 0.0004 | 5470 | 22600 |  | CN(C)c1ccc(-c2c(-c3ccc4[nH]nc(N)c4c3)nnn2Cc2ccccc2)cc1 [Example 185, 5-{1-benzyl-5-[4-(dimethylamino)phenyl]-1H-1,2,3-triazol-4-yl}-1H-indazol-3-amine] |  |  |  |
